Test results published in patent US5723747A, “Wax esters in transformed plants” (Calgene, Inc., priority 1994, dated 1998).
Read-outs that look alike come from different tables or passages of the source.

Legend:
[1] = biological target: T1, jojoba wax synthase (Simmondsia chinensis, UniProt Q9XGY6); assay: Wax synthase assay, microsomal membrane fraction; type: biochemical; details: for Wax synthase Activity, Acyl Group: 80 μM acyl-CoA substrate, 100 μM radiolabeled oleyl alcohol; for Wax synthase Activity, Alcohol Group: 100 μM alcohol substrate, 40 μM radiolabeled eicosenoyl-CoA
T1 construct: added to a microsomal membrane fraction having wax synthase activity; from tissue; host or cells: jojoba microsomal membrane fraction
T1 sequence (Q9XGY6 1-352): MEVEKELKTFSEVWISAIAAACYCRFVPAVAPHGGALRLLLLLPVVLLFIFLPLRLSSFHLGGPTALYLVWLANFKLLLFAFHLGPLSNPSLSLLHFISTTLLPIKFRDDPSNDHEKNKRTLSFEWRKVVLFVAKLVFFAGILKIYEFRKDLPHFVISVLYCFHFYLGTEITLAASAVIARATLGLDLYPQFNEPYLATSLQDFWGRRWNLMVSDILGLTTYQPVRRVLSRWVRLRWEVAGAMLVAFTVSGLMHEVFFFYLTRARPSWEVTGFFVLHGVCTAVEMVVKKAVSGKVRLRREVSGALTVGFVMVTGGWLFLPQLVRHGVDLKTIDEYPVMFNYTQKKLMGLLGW
Protocol: Wax synthase activity is measured by incubation of 40 μM [1-^14 C]acyl-CoA (usually palmitoyl-CoA, sp. act. 5.1-5.6 mCi/mmol) and 200 μM oleyl alcohol with the sample to be assayed in a total volume of 0.25 ml. The incubation mixture also contains 20% w/v glycerol, 1 mM DTT, 0.5M NaCl and is buffered with 25 mM HEPES (4-[2-hydroxyethyl]-1-piperazineethane-sulfonic acid).
A substrate mixture is prepared in a glass vial, with oleyl alcohol being added immediately before use, and is added to samples.
Acyl-CoA and alcohol substrates having varying carbon chain lengths and degrees of unsaturation were added to a microsomal membrane fraction having wax synthase activity to determine the range of substrates recognized by the jojoba wax synthase. Wax synthase activity was measured as described in Example 1, with acyl specificity measured using 80 μM of acyl-CoA substrate and 100 μM of radiolabeled oleyl alcohol. Alcohol specificity was measured using 100 μM of alcohol substrate and 40 μM of radiolabeled eicosenoyl-CoA.

[2] = biological target: T2, jojoba acyl-CoA reductase (Simmondsia chinensis, UniProt Q9XGY7, S459G); assay: biochemical; details: for effect of end-products and cofactors on reductase activity (in words): CoA and NADP+ at millimolar concentrations; for effect of salt on reductase activity (in words): 0.5M monobasic salts, divalent salts at 0.167M and 0.5M; for Reductase Activity, Acyl-CoA (10 μM): acyl-CoA as substrate at 10 μM, 0.5M NaCl, pH 7.5
Protocol: (§1) […] The incubation mixture also contains 10% w/v glycerol, 1 mM DTT, and is buffered with 50 mM HEPES (4-[2-hydroxyethyl]-1-piperazineethane-sulfonic acid) (HEPES, here and as referred to hereafter is added from a 1M stock solution adjusted to pH 7.5).
(§2) […] The assay is terminated by placing the assay tube on ice and immediately adding 0.25 ml isopropanol:acetic acid (5:1 v/v). Unlabeled wax esters (0.1 mg) and oleyl alcohol (0.1 mg) are added as carriers. The [^14 C] lipids are extracted by the scaled-down protocol of Hara and Radin (Anal. Biochem. (1978) 90:420). Six ml of hexane/isopropanol (3:2, v/v) is added to the terminated assay. The sample is vortexed, 2 ml of aqueous sodium sulphate solution (5.5% w/v) is added, and the sample is again vortexed.
(§3) The incubation mixture also contains 10% w/v glycerol, 1 mM DTT, and is buffered with 50 mM HEPES (4-[2-hydroxyethyl]-1-piperazineethane-sulfonic acid) (HEPES, here and as referred to hereafter is added from a 1M stock solution adjusted to pH 7.5). […]
as §2, with “(4:1” for “(5:1”, “(25 μg),” for “(0.1 mg) and”, “(50 μg), and oleic acid (50 μg)” for “(0.1 mg)”, “Four” for “Six”, “(6.7%” for “(5.5%”
(§4) Following addition of the sodium sulphate and vortexing the sample, the upper organic phase is removed and the lower aqueous phase is washed with 4 ml hexane/isopropanol (7:2 v/v). The organic phases are pooled and evaporated to dryness under nitrogen. The lipid residue is resuspended in a small volume of heptane, and an aliquot is assayed for radioactivity by liquid scintillation counting. The remainder of the sample can be used either for TLC analysis of the labeled classes, or for derivatization to cleave the wax esters, and thereby give a measure of total alcohol produced.
(§5) For lipid class analysis the sample is applied to a silica TLC plate, and the plate is developed in hexane/diethyl ether/acetic acid (such as 80:20:1 or 70:30:1 v/v/v). The distribution of radioactivity between the lipid classes, largely wax esters (when ligase is present, as in the microsomal membrane preparation assay), free fatty acids, fatty alcohols, and polar lipids at the origin, is measured using an AMBIS radioanalytic imaging system (AMBIS Systems Inc., San Diego, Calif.). If necessary the individual lipid classes can be recovered from the TLC plate for further analysis.
(§6) Following addition of the sodium sulfate and vortexing the sample, a known percentage of the organic phase is removed and counted via liquid scintillation counting. This calculation is used to estimate the total counts in the organic phase.

[3] = biological target: T2, jojoba acyl-CoA reductase; set-up: The microsomal membrane preparation described above is used for further characterization of the reductase enzyme; from tissue; host or cells: jojoba embryos (about 90 to 110 days postanthesis), microsomal membrane preparation; details: previously shown, Pollard et al.; cited from earlier work
[4] = biological target: jojoba acyl-CoA reductase (Simmondsia chinensis, UniProt Q9XGY7); assay: biochemical
Protocol: as §1, §2, §3
as §2, with “(4:1” for “(5:1”, “(25 μg),” for “(0.1 mg) and”, “(50 μg), and oleic acid (50 μg)” for “(0.1 mg)”, “Four” for “Six”, “(6.7%” for “(5.5%”
as §4, §5, §6

[5] = biological target: T3, acyl CoA: alcohol acyl transferase (Simmondsia chinensis, UniProt Q9XGY6); assay: Acyl CoA: alcohol acyl transferase activity in the membrane preparation; type: biochemical, jojoba; details: 0.3% w/v in the assay mixture
T3 construct: activity which is also present in the membrane preparation; from tissue; host or cells: microsomal membrane preparation (jojoba embryos)
T3 sequence (Q9XGY6 1-352): T1 sequence (Q9XGY6 1-352)
Excerpt: If it is desired to inhibit an acyl CoA: alcohol acyl transferase activity which is also present in the membrane preparation (and which consumes the product of the reductase reaction), 0.3% w/v CHAPS is included in the assay mixture.

[6] = palmitoyl thioesters as acyl substrates

T2 sequence (Q9XGY7 whole entry S459G): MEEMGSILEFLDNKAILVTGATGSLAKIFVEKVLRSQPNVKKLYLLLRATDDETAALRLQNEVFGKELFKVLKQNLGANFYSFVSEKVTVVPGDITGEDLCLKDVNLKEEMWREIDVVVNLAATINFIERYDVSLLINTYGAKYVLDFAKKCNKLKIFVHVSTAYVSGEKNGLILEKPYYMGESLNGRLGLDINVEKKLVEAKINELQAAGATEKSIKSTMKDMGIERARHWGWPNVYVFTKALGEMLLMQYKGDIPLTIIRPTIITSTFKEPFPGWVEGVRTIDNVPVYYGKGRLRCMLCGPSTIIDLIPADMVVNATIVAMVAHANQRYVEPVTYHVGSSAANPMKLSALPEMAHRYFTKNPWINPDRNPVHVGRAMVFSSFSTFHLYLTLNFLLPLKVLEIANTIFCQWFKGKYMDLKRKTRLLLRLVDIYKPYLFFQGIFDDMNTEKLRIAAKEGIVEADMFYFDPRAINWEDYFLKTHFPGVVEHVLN
Chain of jojoba acyl-CoA reductase (Simmondsia chinensis, UniProt Q9XGY7) (Q9XGY7 whole entry S459G): as above

Compound: CCCCCCCCCCCCCCCC(=O)SCCNC(C)=O [N-acetyl-S-palmitoyl cysteamine]
- wax synthase activity towards acyl-thioester substrates (in words) [1, 6]: no activity was detectable

Compound: NC(=O)c1ccc[n+]([C@@H]2O[C@H](COP(=O)([O-])OP(=O)(O)OC[C@H]3O[C@@H](n4cnc5c(N)ncnc54)[C@H](O)[C@@H]3O)[C@@H](O)[C@H]2O)c1 [AND+]
- effect of end-products and cofactors on reductase activity (in words) [2]: marginal effects

Compound: [Cl-].[Li+] [LiC1]
- effect of salt on reductase activity (in words) [2]: stimulate reductase activity

Compound: [Cl-].[K+] [KC1]
- effect of salt on reductase activity (in words) [2]: stimulate reductase activity

Compound: CCCCCCCC/C=C\CCCCCCCCCCCC(=O)SCCNC(=O)CCNC(=O)[C@H](O)C(C)(C)COP(=O)(O)OP(=O)(O)OC[C@H]1O[C@@H](n2cnc3c(N)ncnc32)[C@H](O)[C@@H]1OP(=O)(O)O [22:1]
- Reductase Activity, Acyl-CoA (10 μM) [2]: 1.0 pmol/min/µL
- Wax synthase Activity, Acyl Group [1]: 39 pmol/min
- Wax synthase Activity, Alcohol Group [1]: 41 pmol/min

Compound: CCCCCCCCCCCCCCCCCCCC(=O)SCCNC(=O)CCNC(=O)[C@H](O)C(C)(C)COP(=O)(O)OP(=O)(O)OC[C@H]1O[C@@H](n2cnc3c(N)ncnc32)[C@H](O)[C@@H]1OP(=O)(O)O [20:0]
- Wax synthase Activity, Acyl Group [1]: 49 pmol/min
- Wax synthase Activity, Alcohol Group [1]: 21 pmol/min

Compound: CCN1C(=O)C=CC1=O [N-ethylmaleimide]
- inhibitory effect on jojoba acyl-CoA reductase activity (in words) [2]: strongly inhibit

Compound: NC(=O)CI [iodoacetamide]
- inhibitory effect on jojoba acyl-CoA reductase activity (in words) [2]: no effect

Compound: palmitoyl-ACP [16:0]
- activity as substrate of the reductase (in words) ([2]; substrate specificity experiment, 10 uM substrate): high
- wax synthase activity relative to acyl-CoA [1, 6]: ~ 10 % of that with acyl-CoA

Compound: CC(C)(COP(=O)(O)OP(=O)(O)OC[C@H]1O[C@@H](n2cnc3c(N)ncnc32)[C@H](O)[C@@H]1OP(=O)(O)O)[C@@H](O)C(=O)NCCC(=O)NCCS [CoA]
- effect of end-products and cofactors on reductase activity (in words) [2]: significant inhibition

Compound: NC(=O)C1=CN([C@@H]2O[C@H](COP(=O)(O)OP(=O)(O)OC[C@H]3O[C@@H](n4cnc5c(N)ncnc54)[C@H](O)[C@@H]3O)[C@@H](O)[C@H]2O)C=CC1 [NADH]
- effect of end-products and cofactors on reductase activity (in words) [2]: marginal effects

Compound: O[C@H](CS)[C@H](O)CS (racemic) [DTT, Dithiothreitol]
- effect of effector on reductase activity (in words) [2]: stimulatory

Compound: stearoyl-ACP
- activity as substrate of the reductase (in words) [3]: shown to have activity as a substrate

Compound: CCCCC/C=C\C/C=C\CCCCCCCC(=O)SCCNC(=O)CCNC(=O)[C@H](O)C(C)(C)COP(=O)(O)OP(=O)(O)OC[C@H]1O[C@@H](n2cnc3c(N)ncnc32)[C@H](O)[C@@H]1OP(=O)(O)O [18:2]
- Wax synthase Activity, Acyl Group [1]: 7 pmol/min
- Wax synthase Activity, Alcohol Group [1]: 123 pmol/min

Compound: bovine serum albumin [BSA]
- effect on reductase activity (in words) ([2]; concentrations at and above 0.2 mg/ml): inhibition of activity
- effect on reductase activity (in words) ([2]; low concentrations, 0.02-0.075 mg/ml): small stimulation

Compound: CC[C@H](C)C(=O)O[C@H]1C[C@@H](C)C=C2C=C[C@H](C)[C@H](CC[C@@H]3C[C@@H](O)CC(=O)O3)[C@H]21 [Mevinolin]
- concentration at which an effect on jojoba acyl-CoA reductase is seen ([2]; only has an effect at relatively high concentrations): 100 µM

Compound: CCCCCCCCCCCCCCCC(=O)SCCNC(=O)CCNC(=O)[C@H](O)C(C)(C)COP(=O)(O)OP(=O)(O)OC[C@H]1O[C@@H](n2cnc3c(N)ncnc32)[C@H](O)[C@@H]1OP(=O)(O)O [16:0, palmitoyl-CoA]
- IC50 [4]: 5 µM

Compound: O=C(O)CN(CCN(CC(=O)O)CC(=O)O)CC(=O)O [EDTA, ethylenediaminetetraacetic acid]
- effect of effector on reductase activity (in words) [2]: some stimulation

Compound: [Cl-].[Cl-].[Mg+2] [MgCl2]
- effect of salt on reductase activity (in words) [2]: stimulate reductase activity

Compound: [Cl-].[Na+] [NaCl]
- stimulation of reductase activity ([2]; addition of 0.5M salt, 500000 µM): Up to 15 fold

Compound: N#CS [KSCN]
- effect of salt on reductase activity (in words) [2]: no stimulation or marginal stimulation

Compound: O=S(=O)([O-])[O-].[Na+].[Na+] [Na2 SO4]
- effect of salt on reductase activity (in words) [2]: stimulate reductase activity

Compound: CCCCCCCCCCCCCCCCCCCCCC(=O)SCCNC(=O)CCNC(=O)[C@H](O)C(C)(C)COP(=O)(O)OP(=O)(O)OC[C@H]1O[C@@H](n2cnc3c(N)ncnc32)[C@H](O)[C@@H]1OP(=O)(O)O [22:0]
- Wax synthase Activity, Acyl Group [1]: 46 pmol/min
- Wax synthase Activity, Alcohol Group [1]: 17 pmol/min

Compound: C[C@H](CCC(=O)NCCC[N+](C)(C)CCCS(=O)(=O)[O-])[C@H]1CC[C@H]2[C@@H]3[C@H](O)C[C@@H]4C[C@H](O)CC[C@]4(C)[C@H]3C[C@H](O)[C@]12C [CHAPS, 3-[(3-cholamidopropyl)-dimethyl-ammonio]-1-propanesulfonate]
- effect on the reductase enzyme (in words) ([2]; 0.3% w/v in the assay mixture): minimal effect
- effect on the acyl transferase reaction (in words) [5]: completely inhibits

Compound: O=C(O)c1cc[c]([Hg][OH])cc1 [para-hydroxymercuribenzoate]
- inhibitory effect on jojoba acyl-CoA reductase activity (in words) [2]: some inhibitory effect

Compound: CCCCCCCCCCCCCC(=O)SCCNC(=O)CCNC(=O)[C@H](O)C(C)(C)COP(=O)(O)OP(=O)(O)OC[C@H]1O[C@@H](n2cnc3c(N)ncnc32)[C@H](O)[C@@H]1OP(=O)(O)O [14:0]
- Wax synthase Activity, Acyl Group [1]: 95 pmol/min
- Wax synthase Activity, Alcohol Group [1]: 145 pmol/min

Compound: [Ca+2].[Cl-].[Cl-] [CaCl2]
- effect of salt on reductase activity (in words) [2]: stimulate reductase activity

Compound: C/C=C/C/C=C/CCC(=O)[C@H]1O[C@H]1C(N)=O [Cerulinen]
- inhibitory effect on jojoba acyl-CoA reductase activity (in words) [2]: no strong inhibitory effect

Compound: NC(=O)c1ccc[n+]([C@@H]2O[C@H](COP(=O)([O-])OP(=O)(O)OC[C@H]3O[C@@H](n4cnc5c(N)ncnc54)[C@H](OP(=O)(O)O)[C@@H]3O)[C@@H](O)[C@H]2O)c1 [NADP+]
- effect of end-products and cofactors on reductase activity (in words) [2]: significant inhibition

Compound: CCCCCCCCCCCCCCCCCC(=O)SCCNC(=O)CCNC(=O)[C@H](O)C(C)(C)COP(=O)(O)OP(=O)(O)OC[C@H]1O[C@@H](n2cnc3c(N)ncnc32)[C@H](O)[C@@H]1OP(=O)(O)O [18:0]
- Reductase Activity, Acyl-CoA (10 μM) [2]: 1.4 pmol/min/µL
- Wax synthase Activity, Acyl Group [1]: 51 pmol/min
- Wax synthase Activity, Alcohol Group [1]: 56 pmol/min
